Reference: ChEMBL document CHEMBL2412968, “Tetrazole-based deoxyamodiaquines: synthesis, ADME/PK profiling and pharmacological evaluation as potential antimalarial agents” (Bioorg Med Chem, 2013)
Converted amounts (≈) assume the structure as drawn.

How the values were obtained:
Plasmodium falciparum [1] = test: Antiplasmodial activity chloroquine-sensitive Plasmodium falciparum 3D7 infected in human A+ erythrocytes assessed as reduction of [3H]hypoxanthine incorporation after 24 hrs by scintillation counting; assay type: functional, organism-based
Plasmodium falciparum [2] = test: Antiplasmodial activity chloroquine-resistant Plasmodium falciparum K1 infected in human A+ erythrocytes assessed as reduction of [3H]hypoxanthine incorporation after 24 hrs by scintillation counting; assay type: functional, organism-based
Plasmodium falciparum [3] = test: Antiplasmodial activity chloroquine-resistant Plasmodium falciparum W2 using YOYO-1 staining after 48 hrs by FACS analysis; assay type: functional, organism-based; conditions: W2, 48 h
physchem [4] = conditions: phosphate buffered saline, pH 7.4
physchem [5] = conditions: 0.01 M HCl, pH 2
CHO = test: Cytotoxicity against CHO cells by MTT assay; assay type: cell-based; conditions: Cricetulus griseus

SMILES	IC50 (Plasmodium falciparum [1]) [nM]	IC50 (Plasmodium falciparum [2]) [nM]	IC50 (Plasmodium falciparum [3]) [nM]	solubility kinetic at 2 h (physchem [4]) [µM]	solubility kinetic at 2 h (physchem [5]) [µM]	IC50 (CHO) [nM]
Clc1ccc2c(Nc3cccc(C(c4nnnn4CCN4CCOCC4)N4CCCC4)c3)ccnc2c1 (stereo not drawn)	220	310	3390	–	–	–
CN(C)C(c1ccccc1Nc1ccnc2cc(Cl)ccc12)c1nnnn1C(C)(C)C (stereo not drawn)	3500	3500	3380	–	–	–
CN(C)C(c1ccc(Nc2ccnc3cc(Cl)ccc23)cc1)c1nnnn1C(C)(C)C (stereo not drawn)	12	12	40	–	–	–
CN(C)C(c1cccc(Nc2ccnc3cc(Cl)ccc23)c1)c1nnn[nH]1 (stereo not drawn)	487	2980	1170	72.6 (≈ 27.6 µg/mL)	> 200	–
CCN(CC)C(c1cccc(Nc2ccnc3cc(Cl)ccc23)c1)c1nnn[nH]1 (stereo not drawn)	164	54	475	149 (≈ 60.8 µg/mL)	> 200	–
Clc1ccc2c(Nc3cccc(C(c4nnn[nH]4)N4CCCC4)c3)ccnc2c1 (stereo not drawn)	1100	49	181	150 (≈ 60.9 µg/mL)	> 200	–
Clc1ccc2c(Nc3cccc(C(c4nnn[nH]4)N4CCCCC4)c3)ccnc2c1 (stereo not drawn)	286	1260	487	122 (≈ 51.2 µg/mL)	> 200	–
Clc1ccc2c(Nc3cccc(C(c4nnn[nH]4)N4CCOCC4)c3)ccnc2c1 (stereo not drawn)	2070	1970	1390	–	–	–
CC[C@H]1CN2CCc3cc(OC)c(OC)cc3[C@@H]2C[C@@H]1C[C@H]1NCCc2cc(OC)c(OC)cc21 [EMETINE]	–	–	–	–	–	129
